Data: PubChem BioAssay (NCI)
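Briefly, cells in 96-well plates were exposed to five compound concentrations for 48 h, and endpoints were estimated by linear interpolation. TGI marks complete inhibition of growth.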

What was measured:
Test in all cases: DTP human tumour cell line panel, 48 h
OVCAR-3 ovarian = tested on: OVCAR-3 ovarian
HS 578T breast = tested on: HS 578T breast
OVCAR-5 ovarian = tested on: OVCAR-5 ovarian
MDA-MB-435 = tested on: MDA-MB-435
CAKI-1 renal = tested on: CAKI-1 renal
K-562 leukemia = tested on: K-562 leukemia
HCT-15 colon = tested on: HCT-15 colon
UACC-62 melanoma = tested on: UACC-62 melanoma
SNB-75 CNS = tested on: SNB-75 CNS

SMILES | TGI (OVCAR-3 ovarian) [µM] | TGI (HS 578T breast) [µM] | TGI (OVCAR-5 ovarian) [µM] | TGI (MDA-MB-435) [µM] | TGI (CAKI-1 renal) [µM] | TGI (K-562 leukemia) [µM] | TGI (HCT-15 colon) [µM] | TGI (UACC-62 melanoma) [µM] | TGI (SNB-75 CNS) [µM]
CC(C)(C)c1ccc2c(c1)C#Cc1cc3c(cc1OCCCO2)C#Cc1cc(C(C)(C)C)ccc1OCCCO3 | > 100 | > 100 | > 100 | > 100 | > 100 | > 100 | 5.92 | > 100 | 
CCc1n[nH]c(=O)n1-c1ccc2ccccc2c1 | > 100 | > 100 | > 100 | > 100 | > 100 | > 100 | > 100 | > 100 | > 100
O=C(CCSC1=NCCCN1)c1ccc(F)cc1 | > 68.2 | 62.6 | 29.9 | 47.6 | 46.9 | 10.1 | 36.2 | 32.9 | 42.6
CCN(C(=O)N[C@@H](C)C(=O)N[C@@H](Cc1ccccc1)C(=O)OC)c1ccccc1 | > 100 | > 100 | > 100 | > 100 | > 100 | > 100 | > 100 | > 100 | > 100
Cc1cc(N(C)C)c2ccccc2[n+]1CCCCCCCCCC[n+]1c(C)cc(N(C)C)c2ccccc21 | 10.5 | > 95.3 | 15.6 | 3.26 | 20 | > 35.3 | 14.4 | 3.35 | 8.91
CSc1csc(-c2ccc(-c3ccc(-c4cc(SC)cs4)s3)s2)c1 | > 100 | > 100 | > 100 | > 100 |  | > 100 | > 100 | > 100 | > 100
CC(C)C1=CC23CCC4C(C)(C(=O)O)CCCC4(C)C2CC1C1C(=O)N(CCCCCCN2C(=O)C4C5CC6C7(C)CCCC(C)(C(=O)O)C7CCC6(C=C5C(C)C)C4C2=O)C(=O)C13 (stereo unspecified) | 26.8 | 34.9 | 37.4 | 17.8 |  | > 100 | 30.4 | > 100 | 
O=C(O)c1cccc(S(=O)(=O)NN2C(=O)CSC2c2ccc(Cl)cc2Cl)c1 (stereo unspecified) | > 100 | 58.4 | > 100 | 47 | > 100 | > 100 | > 100 | 86.3 | > 100
CN1CCN(Cc2cc3c(nn2)-c2ccccc2C3=O)CC1 |  | > 100 | > 100 | 50.2 | > 100 | > 100 | > 100 | > 100 | > 100
COc1cccc2c1OC(c1cccc3ccccc13)C([N+](=O)[O-])=C2 (stereo unspecified) | 2.74 | 11 | 3.62 | 3.02 | 5.02 | 4.19 | 3.8 | 2.35 | 2.65
O=C1/C(=C/c2ccc(Cl)cc2)CCCc2ccccc21 | 39.4 | 28.1 | 31.9 | 36.1 | > 100 | 12 | 27.7 | 27.5 | > 100
CCOC(=O)CC/C(=N/Nc1ccc(Cl)cc1[N+](=O)[O-])C(=O)OCC | > 100 | > 100 | > 100 | > 100 |  | > 100 | > 100 | > 100 | > 100
O=c1onc2n1-c1cc(Cl)ccc1C(=S)N1CSCC21 (stereo unspecified) | > 100 | > 100 | > 100 | > 100 | > 100 | 63.8 | > 100 | > 100 | > 100
CCOC(=O)c1c2cccccc-2nc1Nc1cccc2c(C)ccnc12 | > 10 | > 10 | > 10 | > 10 | > 10 | > 10 | > 10 | > 10 | 
Cn1ncc2c(NCc3ccccc3)ncnc21 | > 100 |  | > 100 | > 100 | > 100 | > 100 | > 100 | > 100 | > 100
CC(C)(C)N=C(N)NC#N |  | > 100 | > 100 | > 100 | > 100 | > 100 | > 100 | > 100 | > 100
C=C(C)[C@H]1C2=CC(C(=O)OC)=C(C[C@H](C(=C)C)[C@@H](O)[C@@H](O)C3=C[C@H]1OC3=O)O2 | > 100 | > 100 | > 100 | > 100 | > 100 | > 100 | > 100 | > 100 | > 100
CC(C(=O)COCc1ccccc1)P1(=O)OC(C)(C)CN1C(C)(C)C (stereo unspecified) | > 100 | > 100 | > 100 | > 100 | > 100 |  | > 100 | > 100 | > 100
O=C(c1ccccc1)c1ccc2c(c1)NC(=O)c1ccccc1SSc1ccccc1C(=O)N2 | > 100 | > 100 | > 100 | > 100 | > 100 | > 100 | > 100 | > 100 | 
O=C(O)C(O)C(O)C(O)C(O)CO (stereo unspecified) | > 100 | > 100 | > 100 | > 100 | > 100 | > 100 | > 100 | > 100 | > 100
C[C@@H]1CCC2[C@@H](C)[C@@H](O[C@H]3O[C@@H]4O[C@@]5(C)CCC6[C@H](C)CCC([C@H]3C)[C@]64OO5)O[C@@H]3O[C@@]4(C)CCC1[C@@]23OO4 (stereo partly specified) | > 25 | > 25 | > 25 | > 25 | > 25 | > 25 | > 25 | > 25 | > 25
CC(C)Oc1cccc(N2C(=NCc3c[nH]c4ccccc34)Nc3ccncc3S2(=O)=O)c1 | 56.1 | 81.6 | > 100 | > 100 | > 100 | > 100 | > 100 | 93.5 | 67.7
CC1=C(C#N)c2nc3ccccc3n2C(=O)C1(C)CCO (stereo unspecified) | > 100 | > 100 | > 100 | > 100 | > 100 | > 100 | > 100 | > 100 | > 100
